Data: US8716228B2, “GPR54 agonists or antagonists for treatment of diseases presenting behavioral abnormalities” (YEDA Research and Development Co. Ltd., priority 2009, dated 2014)

Tests used:
naive mice = experiment: Tail suspension test; type: in vivo, mouse; settings: 100 μl of 100 μM, vs PBS
Procedure: Tail suspension test. The tail suspension apparatus was made of horizontal metal rod supported by a stand. Each mouse was suspended from its tail using adhesive tape, suspending each mouse individually. The immobility time was measured during a 6 min observation period, latency to first immobility and total immobility was calculated (FIG. 10A).
The results we presented above using the PPI paradigm only relate to the psychotic symptoms of schizophrenia. However, schizophrenia patients suffer from cognitive and negative symptoms as well (i.e depression). […] To address whether Kp-10 has an antidepressant potency we studied its effect in the tail suspension test, an established method for screening antidepressant-like activity in mice (Steru et al., 1985; Cryan et al., 2005). Naïve mice were treated with Kp-10 (SEQ ID NO:3; 100 μl of 100 μM) or PBS and were subjected to the tail suspension test, in which the mouse is suspended by the tail from a lever, and the movements of the animal are recorded (FIG. 10A). The latency to the first immobility was longer and the duration of the total immobility was shorter in the Kp-10 treated mice compared to PBS treated mice (FIGS. 10B-10C).

BDNF = settings: hippocampal slices; cited from earlier work
naive C57B1/6 mice = experiment: PPI in naive C57B1/6 mice; type: in vivo, mouse
Procedure: Prepulse Inhibition (PPI). PPI testing was performed within startle chambers purchased from Med Associates Inc (Med Associates, St. Albans, Vt., USA). […] Briefly, during a period of acclimation, a 65-dB background noise was applied for 5-min, and continued throughout the test session. All sessions for testing of PPI consisted of startle trials (pulse alone, 40-ms, 120-dB), prepulse trials (prepulse 20-ms, 69, 73, 78, or 81 dB followed by a (100-ms delay) pulse), and no-stimulus trials. All sessions were presented in pseudo-random order. The average time between trials was 15 s (range 12-30 s). PPI was calculated as: % PPI=100−{[(startle response for prepulse+pulse)/(startle response for pulse-alone)]×100}. […] Data from no-stimulation trials are not included in the results because the values obtained were negligible relative to values from trials containing startle stimuli.
Neurotensin receptor antagonist SR142948 (TOCRIS COOKSON LTD) was used at 100 μg/kg 60 min before the PPI analysis.
GnRH receptor antagonist Cetrorelix Acetate (Cetrotide™, Anaspec Inc. Fremont, Calif.). Control mice were administered the same volume of PBS.
To examine whether Kp-10 can elevate PPI in naïve mice in a dose dependent manner, we analyzed PPI in C57B1/6 mice that were injected i.p with 100 μl of 1/10/100 μM Kp-10 (SEQ ID NO:3).

GPR54 = GPR54 (Mus musculus, UniProt Q91V45); settings: in vivo; cited from earlier work
SCID mice = experiment: Radial arm water maze (RAWM); type: in vivo, mouse; settings: i.p. 100 μl containing 100 μM at beginning of each of two days, vs PBS
Procedure: Radial arm water maze (RAWM). Mice were tested for two days on 6 radial arm water maze paradigm in a water pool, as described in Alamed et al. (2006). Briefly, mice received Kp-10 injection in the beginning of each day. On the first day, 15 trials were performed, in trials 1, 3, 5, 7, 9 and 11 the platform was visible, and in all other trials the platform was hidden. On the second day, 12 trials were performed, all of them with hidden platform. The time required to reach the platform and the number of errors (incorrect arm entries) in 1-min time period were recorded (FIG. 11A).
One of the cognitive malfunctions in schizophrenia is deficit in spatial learning and memory. To evaluate whether kisspeptine can improve spatial learning and memory, we studied its effect in the radial arm water maze (RAWM), a hippocampal dependent spatial learning and memory assay. In this task, the mouse must find a platform that is located at one of the six maze arms; the time required to reach the platform and the number of errors along the way are recorded (Alamed et al., 2006) (FIG. 11A). Since wild type mice perform well in this test, the ability of Kp-10 to improve their performance is very limited. Therefore we used immune deficient mice (severe combined immunodeficiency; SCID), which have cognitive deficit manifested by poorer performance in the RAWM test. […]

[1] = tested on: offspring of poly I:C treated dams; experiment: PPI in offspring of poly I:C treated dams (mouse model for schizophrenia); type: in vivo
Procedure: Poly I:C administration. Rats or mice were bred, and the first day after copulation was defined as day 1 of pregnancy. On gestation day 15, pregnant animals were injected intravenously with 4.0 mg/kg poly I:C (Sigma-Aldrich, Israel) dissolved in saline, or an equivalent volume of saline as a control. Both rats and mice received the same protocol of poly I:C administration.
Prepulse Inhibition (PPI). PPI testing was performed within startle chambers purchased from Med Associates Inc (Med Associates, St. Albans, Vt., USA). PPI was analyzed as described previously (Kipnis et al., 2004). Briefly, during a period of acclimation, a 65-dB background noise was applied for 5-min, and continued throughout the test session. All sessions for testing of PPI consisted of startle trials (pulse alone, 40-ms, 120-dB), prepulse trials (prepulse 20-ms, 69, 73, 78, or 81 dB followed by a (100-ms delay) pulse), and no-stimulus trials. All sessions were presented in pseudo-random order. The average time between trials was 15 s (range 12-30 s). PPI was calculated as: % PPI=100−{[(startle response for prepulse+pulse)/(startle response for pulse-alone)]×100}. In all the experiments, there were no significant differences between groups in trials of startle reactivity to pulse alone, and in no-stimulation trials. Data from no-stimulation trials are not included in the results because the values obtained were negligible relative to values from trials containing startle stimuli. Reduced PPI is associated with schizophrenia-related behavior. The same protocol was used in mice and rats (FIG. 1A).
Kisspeptin treatment. Mice were injected i.p with 100 μl of 1/10/100 μM Kp-10 peptide (SEQ ID NO:3) (synthesized at the Weizmann Institute of Science, or Sigma-Aldrich, Israel) dissolved in PBS, 30 minutes before the PPI analysis.
The ability of a normal lymphocyte population to reverse abnormal PPI behavior in immune deficient mice, encouraged us to test whether immune cells derived from the offspring of poly I:C treated dams would reverse the abnormal behavior of SCID mice in the PPI test. […]

Sequence of GPR54 (Q91V45 whole entry): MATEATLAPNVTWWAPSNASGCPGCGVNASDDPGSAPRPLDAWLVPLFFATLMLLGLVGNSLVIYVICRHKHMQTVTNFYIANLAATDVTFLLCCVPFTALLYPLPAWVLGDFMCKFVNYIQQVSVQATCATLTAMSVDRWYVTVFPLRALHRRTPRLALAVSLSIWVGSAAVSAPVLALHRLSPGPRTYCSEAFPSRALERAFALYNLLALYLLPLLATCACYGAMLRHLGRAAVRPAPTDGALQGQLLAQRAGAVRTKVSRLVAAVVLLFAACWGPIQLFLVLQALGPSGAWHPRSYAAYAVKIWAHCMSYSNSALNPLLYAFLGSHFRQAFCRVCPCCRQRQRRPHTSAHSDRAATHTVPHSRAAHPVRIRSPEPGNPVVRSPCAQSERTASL

Substance: YNWNSFGLRF—NH2 [Kp-10]
- duration of the total immobility (naive mice): shorter
- latency to the first immobility (naive mice): longer
- BDNF mRNA levels (BDNF): elevate BDNF mRNA levels
- PPI (naive C57B1/6 mice; 100 μl of 1000 μM, small group, data not shown, vs PBS): no improvement was detected
- PPI (naive C57B1/6 mice; female C57B1/6 mice, single dose 100 μl of 100 μM): significantly increased the PPI
- PPI 24 hours after administration (ANOVA of percent PPI) (naive C57B1/6 mice; male mice, 100 μl of 100 μM): no significant main effect of the treatment
- duration of the effect on PPI (naive C57B1/6 mice; male mice, 100 μl of 100 μM): less than 24 hours
- PPI after repeated injection (naive C57B1/6 mice; male mice, repeated injection 24 hours after the first): induced the elevation of the PPI again
- PPI after repeated injection (naive C57B1/6 mice; male mice, repeated injection 7 days after the first): induced the elevation of the PPI again
- PPI at adulthood (naive C57B1/6 mice; naive animals, single injection at adolescence, vs PBS): no differences between the Kp-10 and the PBS treated mice
- PPI (naive C57B1/6 mice; naive male mice, i.p. 100 μl of 1 μM, vs PBS): improved PPI but the improvement was not statistically significant
- PPI (naive C57B1/6 mice; naive male mice, i.p. 100 μl of 10 μM, vs PBS): significantly increased PPI
- PPI (naive C57B1/6 mice; naive male mice, i.p. 100 μl of 100 μM, vs PBS): significantly increased PPI
- GPR54 activation (GPR54): activate GPR54 in vivo
- latency time to find the platform (SCID mice): improved
- number of errors (SCID mice): reduced
- PPI at adulthood (12 weeks) ([1]; single i.p. injection at adolescence (8 weeks), 100 μl containing 100 μM, vs PBS): did not exhibit abnormal PPI
- PPI ([1]; treatment at adulthood (12 weeks) after onset, 100 μl of 100 μM, 30 min before PPI): improved the abnormal PPI
